Data taken from patent US20110319660A1 (Galactic SA, priority 2008, published 2011).

Tests used:
[1] = Specific surface area by mass of crystals by optical microscopy; type: physicochemical
From the text: The specific surface area by mass (SSM) of crystals is the area developed by the crystals per unit of weight. The specific surface area by mass (SSM) is used to compare the dimensional characteristics of crystals of a suspension or a powder with those of another suspension or powder. This specific surface area can be measured by means of optical imaging on the basis of a volume (Vm) and the mean surface area (Sm) of hundreds of crystals (by measuring the length of the face thereof) and the density of the crystals (Dc):
The crystal size measurements were made using an optical microscope (Askania RME5) equipped with a digital camera (Nikon Coolpix 4500) with crystal measurement software supplied by Leica. For both test conditions, the length (L1) and thickness (L2) of 200 crystals were measured.
The specific surface area by mass of the crystals obtained at low supersaturation is 0.03 m^2/g whereas that of the crystals at high supersaturation is 0.06 m^2/g. This is calculated by taking the surface area and the volume of a parallelepiped having a length L1 and width and thickness L2.
The specific surface area by mass of the crystals is also estimated by measuring the length and thickness of 200 crystals of each sample according to the protocol described in example 1.

[2] = Thermal stability test: colour after heating at reflux at 200° C. for two hours; settings: 90% solution of crystals
Procedure: The analyses conducted on the 90% crystal solutions are a measurement of the colour at ambient temperature (APHA scale in Hazen units) and a thermal stability test consisting of measuring the colour (APHA scale in Hazen units) of the substance after heating at reflux at a temperature of 200° C. for two hours.

[3] = Secondary nucleation temperature Tn of lactic acid solution; type: physicochemical
Procedure: We measured the secondary nucleation temperature for more reproducibility. For this purpose, a few large crystals (three or four) are introduced into the slightly subcooled solution (26° C.). These crystals are used to initiate nucleation. To obtain nucleation, the solution is cooled according to a cooling gradient of 10° C./hr. The nucleation temperature is measured when the first crystal (excluding crystals in solution) appears.

## CC(O)C(=O)O (centres unmarked) [lactic acid, hydroxy-2-propanoic acid]
[1]; Example 1: crystals obtained at high supersaturation Ds^c=87.5%
  Specific surface area by mass: 0.06 m^2/g
[1]; Example 1: crystals obtained at low supersaturation Ds^c=12.5%
  Specific surface area by mass: 0.03 m^2/g
[1]; Example 2: crystals, supersaturation 14%
  Specific surface area by mass: 0.03 m^2/g
[1]; Example 2: crystals, supersaturation 50%
  Specific surface area by mass: 0.045 m^2/g
[1]; Example 2: crystals, supersaturation 86%
  Specific surface area by mass: 0.07 m^2/g
[2]; Example 2: supersaturation 14%
  Colour after heating (200° C., 2 hrs), after drying: 500 Hazen
  Colour after heating (200° C., 2 hrs), after passage on Noritt ROX activated carbon (20 g/l): 25 Hazen
  Colour after heating (200° C., 2 hrs), after washing (25% of a 90% lactic acid solution, 4° C.): 49 Hazen
[2]; Example 2: supersaturation 50%
  Colour after heating (200° C., 2 hrs), after drying: 900 Hazen
  Colour after heating (200° C., 2 hrs), after passage on Noritt ROX activated carbon (20 g/l): 45 Hazen
  Colour after heating (200° C., 2 hrs), after washing (25% of a 90% lactic acid solution, 4° C.): 88 Hazen
[2]; Example 2: supersaturation 86%
  Colour after heating (200° C., 2 hrs), after drying: 1328 Hazen
  Colour after heating (200° C., 2 hrs), after washing (25% of a 90% lactic acid solution, 4° C.): 480 Hazen
[3]; Example 1: lactic acid concentration 92%, colour 2000 Hazen, relative monomer content 96%
  secondary nucleation temperature: 18 °C
[3]; Example 2: lactic acid concentration 90%, colour 1800 Hazen, relative monomer content 94%
  Tn: 18 °C
[3]; Example 4: lactic acid concentration 95.4%, colour 1900 Hazen, relative monomer content 91%
  Tn: 33 °C
[3]; total acidity 89%, free acidity 78.7%, relative monomer content 77%
  Tn: 8 °C
[3]; total acidity 89%, free acidity 84%, relative monomer content 89%
  Tn: 15 °C
[3]; total acidity 89%, free acidity 87.6%, relative monomer content 97.5%
  Tn: 22 °C
[3]; total acidity 89%, free acidity 88.2%, relative monomer content 99%
  Tn: 23 °C
